Assay results taken from article PMC5404848 (Cell Chemical Biology, 2017).

Columns and labels:
[1] = tested on: HCT116 cells; assay: Membrane integrity LDH release assay; assay type: cell-based, Human; details: 48 hr of treatment
Protocol: To test the biological activity of the compounds, we performed MTT (3-(4,5-dimethylthiazol-2-yl)-2,5-diphenyltetrazolium bromide) and lactate dehydrogenase (LDH) release assays. In addition, the importance of p53 status was evaluated by the use of two variants of HCT116 cells: HCT116 p53^wt (wild-type) and HCT116 p53^−/−. To track not only the toxic (lethal) but also growth-inhibitory (GI) effect in the MTT assay, we treated the cells for 6 days. In the experiment the toxic effect, but not the GI effect, was expected to be accompanied by LDH release.
Membrane integrity LDH release assay was performed using CytoTox-ONE kit (Promega). The cells were seeded on 96-well black plates, and after 24 hours treated with the compounds or DMSO for 2 days. The assay was performed according to the manufacturer’s instructions. For each well the data was calculated as a % of total LDH content, measured for the lysed cells, treated in the same manner as cells on that well.

[2] = tested on: HCT116 p53^wt cells; assay: Western blot analysis of protein expression; assay type: cell-based, Human
Excerpt: (§1) The progression from G1 to S phase relies largely on the expression and activity of D cyclins. To verify whether the observed impairment in cell-cycle progression following LCAHA treatment is associated with D cyclins, we investigated the expression of cyclins D1 and D3 in HCT116 p53^wt and HCT116 p53^−/− cells.

[3] = tested on: HCT116 p53^−/− cells; assay: Western blot analysis of protein expression; assay type: cell-based, Human; details: 5 or 20 μM, 48 hr
Excerpt: as §1

[4] = tested on: MCF-7 cells; assay: MTT assay, 6 days; assay type: cell-based, Human
Protocol: (§2) In addition a colony-forming assay was performed on cyclin D1-addicted MCF-7 cells and cyclin D1-negative SAOS-2 cells.
(§3) For MTT assay, the cells were seeded on 96-well transparent plates and treated the next day with the compounds or DMSO for 6 days. Thiazolyl Blue Tetrazolium Bromide (MTT, Sigma Aldrich) was added for 60 minutes to a final concentration of […]. The medium was removed and MTT crystals were dissolved in isopropanol supplemented with 40 mM HCl. The absorbance was measured with Infinite 200 microplate reader (Tecan Group Ltd.) at 570 nm with the reference wavelength 650 nm for background subtraction.

[5] = tested on: SAOS-2 cells; assay: MTT assay, 6 days; assay type: cell-based, Human
Protocol: as §2, §3

[6] = tested on: U-2 OS cells; assay: MTT assay, 6 days; assay type: cell-based, Human
Protocol: as §2, §3

[7] = tested on: MCF-7 cells; assay: Western blot analysis of cyclin D1 expression; assay type: cell-based, Human; details: 10 μM, 48 hr
[8] = tested on: U-2 OS cells; assay: Western blot analysis of cyclin D1 expression; assay type: cell-based, Human; details: 10 μM, 48 hr
[9] = tested on: MCF-7 cells; assay: Colony formation assay; assay type: cell-based, Human; details: 5 μM for 5 days
Protocol: (§4) […]. […] […]. In addition a colony-forming assay was performed on cyclin D1-addicted MCF-7 cells and cyclin D1-negative SAOS-2 cells. […].
(§5) One thousand of the cells was then seeded on 6-well plates and cultured for 2-4 weeks until the generation of well-visible clones. The plates were stained with crystal violet, imaged with the ChemiDoc MP system and analyzed using the ImageJ software ([Schneider et al., 2012]) and ‘Analyze particles’ tool. The surviving fraction (SF) was calculated using the equation: SF = (PE of treated sample / PE of control) * 100%, where PE (plating efficiency) = Ncolonies / Ncells plated.

[10] = tested on: SAOS-2 cells; assay: Colony formation assay; assay type: cell-based, Human; details: 5 μM for 5 days
Protocol: as §4, §5

[11] = tested on: CCND1 mRNA in HCT116, MCF-7, and U-2 OS; assay: RT-PCR of CCND1 mRNA; assay type: cell-based, Human; details: 10 μM, 48 hr
Protocol: To characterize the mechanism of cyclin D1 downregulation by LCAHA, we first examined the level of CCND1 mRNA. […] In SAOS-2 cells CCND1 mRNA was not detected.
Total RNA was isolated with Renozol (GenoPlast Biochemicals) according to the manufacturer’s instructions. Five hundred ng of RNA was reverse-transcribed using M-MLV RT (Promega) and oligo-dT primer. RT PCR was performed with the use of GoTaq qPCR Master Mix (Promega) and the following primers: for CCND1 mRNA: […] and […], for GAPDH mRNA: […] and […] ([Yin et al., 2001]). The hybridization step was carried out at 60°C and the program involved 30 amplification cycles. The products were separated on 1% agarose gel and visualized with ChemiDoc MP system.

[12] = tested on: HCT116 p53^wt cells; assay: Cell numbers from pictures of Hoechst-stained cells; assay type: cell-based, Human; details: 3 days, DMSO 6452
Protocol: The cells were plated on the 96-well white, flat bottom plates (Falcon) and treated with DMSO, LCAHA or Staurosporine. For the detection of caspase activity Caspase-Glo 3/7 Assay System was used (Promega) according to the manufacturer’s instructions. Due to the observed growth-inhibitory properties of LCAHA the results were normalized to cell numbers, calculated from the pictures of Hoechst-stained cells seeded on transparent culture plates and treated identically as the cells seeded for caspase activity assay (mean nuclei number per picture was 6452 for 3 days treatment with DMSO, and 3957, 4229 and 2783 for the cells treated with increasing concentrations of LCAHA).

[13] = tested on: HCT116 p53^wt cells; assay: Western blot analysis of protein expression; assay type: cell-based, Human; remark: listed apart in the source
[14] = tested on: HCT116 cells; assay: Western blot analysis of USP2a targets Aurora A and cyclin A1; details: 5 μM and 20 μM, 48 hr
Protocol: Total cell lysates were prepared with RIPA buffer (Sigma Aldrich) containing protease inhibitor cocktail (Sigma Aldrich) alone or with phosphatase inhibitor cocktail (Roche). Following the electrophoresis and transfer, PVDF membranes were blocked with 4% BSA (BioShop) in TBS-N buffer and incubated with primary antibody at 4°C overnight. After four washes, the addition of secondary antibodies and additional four washes, the detection was performed using Clarity Western ECL Substrate (BioRad) and ChemiDoc MP system (BioRad). The densitometry analysis was performed with Image Lab software (BioRad). All measured values, besides cyclin D1 stability experiment, were normalized to GAPDH or α-tubulin expression level.

C[C@H](CCC(=O)NO)[C@H]1CC[C@H]2[C@@H]3CC[C@@H]4C[C@H](O)CC[C@]4(C)[C@H]3CC[C@]12C [LCAHA, N-(hydroxy)-3-hydroxylithocholanamide]
LDH release [1]: observed only at the concentrations corresponding to the high-concentration toxic effect
cyclin D1 level over time course ([2]; 5 μM, 24, 26, 28, 30, or 32 hr): significant decrease in cyclin D1
cyclin D1 expression ([2]; 5 or 20 μM, 48 hr): significant, dose-dependent decrease
cyclin D3 expression ([2]; 5 or 20 μM, 48 hr): no effect
cyclin D1 expression [3]: significant, dose-dependent decrease
cyclin D3 expression [3]: no effect
viability (MTT) [4]: biphasic, dose-dependent decrease of viability
viability (MTT) [5]: viability decrease was observed only at high concentrations
viability (MTT) [6]: biphasic, dose-dependent decrease of viability
cyclin D1 expression [7]: significant decrease of cyclin D1 expression
cyclin D1 expression [8]: significant decrease of cyclin D1 expression
clonogenic potential (surviving fraction and mean colony size) [9]: significant decrease of the clonogenic potential
clonogenic potential [10]: did not affect the clonogenic potential
level of CCND1 mRNA [11]: did not change
mean nuclei number per picture ([12]; first (lowest) of increasing concentrations): 3957
mean nuclei number per picture ([12]; second of increasing concentrations): 4229
mean nuclei number per picture ([12]; third (highest) of increasing concentrations): 2783
phosphorylation of Akt (S473) ([13]; 5 μM, 24–32 hr): increase of the phosphorylation
phosphorylation of GSK-3β (S9) ([13]; 5 μM, 24–32 hr): increase of the phosphorylation
expression of p27 ([13]; 5 or 20 μM, 48 hr, HCT116 cells (Figures 2A and S3A)): not altered
expression of proteins encoded by p53-target genes (MDM2 and p21) and of p53 ([13]; 24 or 48 hr): did not induce
expression level of Aurora A [14]: significant decrease
expression level of cyclin A1 [14]: significant decrease
